According to article PMC11726183, “Design, synthesis, in vitro, and in silico studies of novel isatin-hybrid hydrazones as potential triple-negative breast cancer agents” (RSC Advances, 2025):
Where two headings read alike, the source gives them in different places.

Columns and labels:
Type in all cases: cell-based, human
normal cell line MCF-10 = assay: MTT cytotoxicity assay on normal breast epithelial cell line MCF-10A (control); settings: for IC50: read-out: IC50 values, normal cell line MCF-10
From the text: (§1) Breast cancer cells MDA-MB-231 were used to investigate the synthesized compounds' anticancer properties. Because these cancer cells lack estrogen receptors (ER), progesterone receptors (PR), and human epidermal growth factor receptor 2 (HER2), they are also known as triple-negative breast cancer cells (TNBC).[44] These receptors are generally utilized as target proteins in cancer treatment and are often overexpressed in cancer cells. […] At the same time human normal breast epithelial cell line MCF-10A was kept as a control in the experiment to check out whether the cytotoxic effects of the compounds were selective for malignant cells in comparison to non-malignant cells. Variable concentrations (6.5 μM, 12.5 μM, 25 μM, and 50 μM) of the synthesized compounds 5–25 were used to investigate the prohibition of growth in the human breast cancer cell line MDA-MB-231 and the non-tumorigenic MCF-10. The MTT [3-(4,5-dimethylthiazol-2-yl)-2,5-diphenyltetrazolium bromide] assay was used to determine the reduction in cancer cell viability induced by cytotoxic agents. […] IBM SPSS Statistics 26 software was used for the analysis of dose–response and computation of IC50 values.
(§2) In vitro, cytotoxicity assay for the synthetic derivatives was determined by performing an MTT (yellow tetrazolium salt, 3-(4,5-dimethylthizol-2-yl)-2,5-diphenyl tetrazolium bromide) assay by using an aggressive breast cancer cell line MDA-MB-231.[51] Human breast normal cell line MCF-10A was kept as a control in the study.[52,53] Cells were cultured in DMEM augmented with 10% FBS and 1% antibiotics (100 U per mL penicillin). The cells were sowed in a 96-well plate at a 1.0 × 10^4 cells per well density and incubated for 24 h at 37 °C in 5% CO2. The medium was discarded, and both the cell lines were treated with different concentrations (6.5 μM, 12.5 μM, 25 μM, and 50 μM) of synthetic hydrazone derivatives.[54] After 48 h of incubation 20 μL of MTT solution (5 mg mL^−1) was pipetted into each well and incubated for another 4 h.[55] Later the medium was discarded, and the precipitate of formazan was dissolved in DMSO. The absorbance of the mixtures was calculated using a microplate reader at 570 nm. Triplicates were used for performing all experiments and the cytotoxicity was expressed as a percentage of cell viability compared to untreated control cells.[54]1 [drawing 22]

[1] = as above; settings: human, MTT, 48 h, concentration for the value not given (6.5-50 μM tested)
From the text: as §1, §2

[2] = tested on: MDA-MB-231 breast cancer cell line; assay: MTT cytotoxicity assay on breast cancer cell line MDA-MB-231; settings: for IC50: read-out: IC50 values, breast cancer cell line MDA-MB-231; for % viability, breast cancer cell line MDA-MB-231: concentration for the value not given (6.5-50 μM tested)
From the text: as §1, §2

[3] = Homo sapiens, MCF10, MTT, 48 h, unit from text (highest concentration 50 μM)
[4] = MCF-10A normal breast epithelial cells
[5] = Homo sapiens, MDA-MB-231, MTT, 48 h

Compound | IC50 (normal cell line MCF-10; Homo sapiens, MCF10, 48 h) | viability at 48 h [1] | IC50 ([2]; Homo sapiens, MDA-MB-231, 48 h) | % viability, breast cancer cell line MDA-MB-231 ([2]; MTT, 48 h) | IC50 (normal cell line MCF-10; [3]) | viability at 48 h [1, 4] | IC50 [2, 5] | % viability, normal cell line MCF-10 (normal cell line MCF-10; MTT, 48 h, concentration for the value not given (6.5-50 μM tested)) | IC50 (normal cell line MCF-10; MTT, 48 h, unit from text (highest concentration 50 μM)) | IC50 ([2]; MTT, 48 h)
O=C(N/N=C1/C(=O)N(Cc2ccccc2)c2ccccc21)c1cccc(Cl)c1 [Compound 5, (E)-N′-(1-Benzyl-2-oxoindolin-3-ylidene)-3-chlorobenzohydrazide] | > 50 µM | 80.1% | 26.4 ± 0.8 µM | 27.11% | – | – | – | – | – | –
COc1ccc(C(=O)N/N=C2/C(=O)N(Cc3ccccc3)c3ccccc32)cc1 [Compound 6, (E)-N′-(1-Benzyl-2-oxoindolin-3-ylidene)-4-methoxybenzohydrazide] | > 50 µM | 81.1% | 25.8 ± 0.4 µM | 26.13% | – | – | – | – | – | –
Cc1ccc(F)c(C(=O)N/N=C2/C(=O)N(Cc3ccccc3)c3ccccc32)c1 [Compound 7, (E)-N′-(1-Benzyl-2-oxoindolin-3-ylidene)-2-fluoro-5-methylbenzohydrazide] | > 50 µM | 79.3% | 33.6 ± 0.5 µM | 30.01% | – | – | – | – | – | –
O=C(N/N=C1/C(=O)N(Cc2ccccc2)c2ccccc21)c1ccncc1 [Compound 8, (E)-N′-(1-Benzyl-2-oxoindolin-3-ylidene)isonicotinohydrazide] | > 50 µM | 78.1% | 16.8 ± 0.9 µM | 19.13% | – | – | – | – | – | –
Cc1ccc(C(=O)N/N=C2/C(=O)N(Cc3ccccc3)c3ccccc32)cc1F [Compound 9, (E)-N′-(1-Benzyl-2-oxoindolin-3-ylidene)-3-fluoro-4-methylbenzohydrazide] | > 50 µM | 76.2% | 27.4 ± 0.5 µM | 25.61% | – | – | – | – | – | –
O=C(Cc1ccccc1C(F)(F)F)N/N=C1/C(=O)N(Cc2ccccc2)c2ccccc21 [Compound 10, (E)-N′-(1-Benzyl-2-oxoindolin-3-ylidene)-2-(2-(trifluoromethyl)phenyl)acetohydrazide] | – | – | – | 29.12% | > 50 µM | 84.9% | 25.4 ± 0.8 µM | – | – | –
O=C(N/N=C1/C(=O)N(Cc2ccccc2)c2ccccc21)c1ccccc1 [Compound 11, (E)-N′-(1-Benzyl-2-oxoindolin-3-ylidene)benzohydrazide] | > 50 µM | 82% | 28.4 ± 0.5 µM | 25.41% | – | – | – | – | – | –
O=C(Cc1ccc(C(F)(F)F)cc1)N/N=C1/C(=O)N(Cc2ccccc2)c2ccccc21 [Compound 12, (E)-N′-(1-Benzyl-2-oxoindolin-3-ylidene)-2-(4-(trifluoromethyl)phenyl)acetohydrazide] | – | – | – | 36.52% | > 50 µM | 80.4% | 31.2 ± 0.9 µM | – | – | –
O=C(N/N=C1/C(=O)N(Cc2ccccc2)c2ccccc21)c1cccc2ccccc12 [Compound 13, (E)-N′-(1-Benzyl-2-oxoindolin-3-ylidene)-1-naphthohydrazide] | > 50 µM | 79.1% | 28.6 ± 0.5 µM | 29.01% | – | – | – | – | – | –
O=C(N/N=C1/C(=O)N(Cc2ccccc2)c2ccccc21)c1ccc(Br)cc1 [Compound 14, (E)-N′-(1-Benzyl-2-oxoindolin-3-ylidene)-4-bromobenzohydrazide] | > 50 µM | 85.4% | 36.8 ± 0.7 µM | 42.11% | – | – | – | – | – | –
Cc1ccccc1C(=O)N/N=C1/C(=O)N(Cc2ccccc2)c2ccccc21 [Compound 15, (E)-N′-(1-Benzyl-2-oxoindolin-3-ylidene)-2-methylbenzohydrazide] | > 50 µM | 84.3% | 24.4 ± 0.6 µM | 23.77% | – | – | – | – | – | –
O=C(N/N=C1/C(=O)N(Cc2ccccc2)c2ccccc21)c1ccco1 [Compound 16, (E)-N′-(1-Benzyl-2-oxoindolin-3-ylidene)furan-2-carbohydrazide] | > 50 µM | 79.9% | 29.2 ± 0.7 µM | 29.40% | – | – | – | – | – | –
O=C(N/N=C1/C(=O)N(Cc2ccccc2)c2ccccc21)c1ccc(C(F)(F)F)cc1 [Compound 17, (E)-N′-(1-Benzyl-2-oxoindolin-3-ylidene)-4-(trifluoromethyl)benzohydrazide] | > 50 µM | 77.6% | 37.5 ± 0.9 µM | 38.09% | – | – | – | – | – | –
O=C(N/N=C1\C(=O)N(Cc2ccccc2)c2ccccc21)c1cccnc1 [Compound 18, (Z)-N′-(1-Benzyl-2-oxoindolin-3-ylidene)nicotinohydrazide] | > 50 µM | 85.1% | 34.6 ± 0.4 µM | 41.19% | – | – | – | – | – | –
O=C(Cc1ccccc1Nc1c(Cl)cccc1Cl)N/N=C1/C(=O)N(Cc2ccccc2)c2ccccc21 [Compound 19, (E)-N′-(1-Benzyl-2-oxoindolin-3-ylidene)-2-(2-((2,6-dichlorophenyl)amino)phenyl) acetohydrazide] | – | – | – | 37.23% | > 50 µM | 80.3% | 29.2 ± 0.4 µM | – | – | –
O=C(N/N=C1/C(=O)N(Cc2ccccc2)c2ccccc21)c1ccccc1Cl [Compound 20, (E)-N′-(1-Benzyl-2-oxoindolin-3-ylidene)-2-chlorobenzohydrazide] | > 50 µM | 77.6% | 28.8 ± 0.6 µM | 34.56% | – | – | – | – | – | –
O=C(Cc1ccc(F)cc1F)N/N=C1/C(=O)N(Cc2ccccc2)c2ccccc21 [Compound 21, (E)-N′-(1-Benzyl-2-oxoindolin-3-ylidene)-2-(2,4-difluorophenyl)acetohydrazide] | > 50 µM | 85.7% | 22.2 ± 0.7 µM | 22.46% | – | – | – | – | – | –
O=C(N/N=C1/C(=O)N(Cc2ccccc2)c2ccccc21)c1ccccc1Br [Compound 22, (E)-N′-(1-Benzyl-2-oxoindolin-3-ylidene)-2-bromobenzohydrazide] | > 50 µM | 78.4% | 26.1 ± 0.7 µM | 21.28% | – | – | – | – | – | –
O=C(Cc1ccccc1)N/N=C1/C(=O)N(Cc2ccccc2)c2ccccc21 [Compound 24, (E)-N′-(1-Benzyl-2-oxoindolin-3-ylidene)-2-phenylacetohydrazide] | – | – | – | 29.54% | > 50 µM | 78.5% | 24.5 ± 0.8 µM | – | – | –
O=C(N/N=C1/C(=O)N(Cc2ccccc2)c2ccccc21)c1cc2ccccc2cc1O [Compound 25, (E)-N′-(1-Benzyl-2-oxoindolin-3-ylidene)-3-hydroxy-2-naphthohydrazide] | > 50 µM | 76.3% | 30.6 ± 0.4 µM | 31.67% | – | – | – | – | – | –
(E)-1-Benzyl-3-((2-(4-nitrophenyl)-2-oxoethyl)imino)indolin-2-one [Compound 23] | – | – | – | 17.37% | – | – | – | 75.23% | > 50 µM | 15.8 ± 0.6 µM
